What all share (design): scale not given: the % may be the effect or the level left
Experiment [1] has as its target T1, Serine/threonine-protein kinase TAO3 (Homo sapiens) (UniProt Q9H2K8).
T1 sequence (whole entry): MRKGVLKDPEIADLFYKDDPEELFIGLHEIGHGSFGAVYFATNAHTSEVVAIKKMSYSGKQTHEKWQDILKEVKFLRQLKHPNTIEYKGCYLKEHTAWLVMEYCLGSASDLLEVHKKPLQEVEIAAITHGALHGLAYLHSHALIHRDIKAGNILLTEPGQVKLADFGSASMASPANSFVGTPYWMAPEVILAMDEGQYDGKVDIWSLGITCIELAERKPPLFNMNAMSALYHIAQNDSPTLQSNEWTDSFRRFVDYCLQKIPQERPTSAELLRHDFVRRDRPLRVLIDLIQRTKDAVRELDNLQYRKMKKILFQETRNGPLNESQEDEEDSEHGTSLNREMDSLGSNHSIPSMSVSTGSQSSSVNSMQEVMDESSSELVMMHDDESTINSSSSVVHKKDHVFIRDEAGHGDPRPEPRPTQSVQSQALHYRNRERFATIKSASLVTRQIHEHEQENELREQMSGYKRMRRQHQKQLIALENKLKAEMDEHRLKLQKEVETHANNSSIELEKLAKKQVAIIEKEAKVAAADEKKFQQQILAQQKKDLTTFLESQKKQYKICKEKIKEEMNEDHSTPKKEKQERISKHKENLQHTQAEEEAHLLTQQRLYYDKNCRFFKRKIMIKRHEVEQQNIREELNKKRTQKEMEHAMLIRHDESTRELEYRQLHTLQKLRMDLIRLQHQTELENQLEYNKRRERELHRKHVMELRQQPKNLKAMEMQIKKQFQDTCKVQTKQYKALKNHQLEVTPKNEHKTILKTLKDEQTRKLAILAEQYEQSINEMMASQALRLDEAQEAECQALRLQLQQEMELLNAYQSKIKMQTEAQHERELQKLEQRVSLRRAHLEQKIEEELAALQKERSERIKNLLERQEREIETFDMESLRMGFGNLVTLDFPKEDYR
Description: Inhibition of human TAOK3 assessed as enzyme activity at 1 uM using myelin basic protein as substrate preincubated for 20 mins followed by [gamma-33P]-ATP addition and measured after 120 mins by radiometric Hot-SpotSM Kinase assay relative to control.

Experiment [2] has as its target T2, Tyrosine-protein kinase TXK (Homo sapiens) (UniProt P42681).
T2 sequence (whole entry): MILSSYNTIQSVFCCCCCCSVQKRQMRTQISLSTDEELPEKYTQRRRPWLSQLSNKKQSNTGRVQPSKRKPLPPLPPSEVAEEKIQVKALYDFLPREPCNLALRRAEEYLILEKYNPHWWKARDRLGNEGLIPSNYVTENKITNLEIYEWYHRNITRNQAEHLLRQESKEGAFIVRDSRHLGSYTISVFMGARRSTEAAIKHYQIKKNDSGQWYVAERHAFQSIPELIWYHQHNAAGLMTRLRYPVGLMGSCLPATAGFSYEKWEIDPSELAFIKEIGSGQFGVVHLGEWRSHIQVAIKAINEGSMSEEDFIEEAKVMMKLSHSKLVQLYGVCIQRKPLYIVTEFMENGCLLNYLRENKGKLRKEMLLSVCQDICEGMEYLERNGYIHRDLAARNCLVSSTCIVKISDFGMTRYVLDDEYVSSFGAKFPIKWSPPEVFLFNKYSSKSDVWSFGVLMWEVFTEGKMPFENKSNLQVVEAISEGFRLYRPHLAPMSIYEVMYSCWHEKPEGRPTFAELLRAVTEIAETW
Description: Inhibition of human TXK assessed as enzyme activity at 1 uM using EAIYAAPFAKKK as substrate preincubated for 20 mins followed by [gamma-33P]-ATP addition and measured after 120 mins by radiometric Hot-SpotSM Kinase assay relative to control.

In experiment [3] the target is Tyrosine-protein kinase SYK (Homo sapiens) (UniProt P43405). Description: Inhibition of human SYK assessed as enzyme activity at 1 uM using poly[Glu:Tyr] (4:1) as substrate preincubated for 20 mins followed by [gamma-33P]-ATP addition and measured after 120 mins by radiometric Hot-SpotSM Kinase assay relative to control.
Experiment [4] has as its target Serine/threonine-protein kinase 38-like (Homo sapiens) (UniProt Q9Y2H1). Kind of experiment: Inhibition of human STK38L assessed as enzyme activity at 1 uM using KKRNRRLSVA as substrate preincubated for 20 mins followed by [gamma-33P]-ATP addition and measured after 120 mins by radiometric Hot-SpotSM Kinase assay relative to control.
Experiment [5] concerns the target T3, Serine/threonine-protein kinase Nek11 (Homo sapiens) (UniProt Q8NG66).
T3 sequence (whole entry): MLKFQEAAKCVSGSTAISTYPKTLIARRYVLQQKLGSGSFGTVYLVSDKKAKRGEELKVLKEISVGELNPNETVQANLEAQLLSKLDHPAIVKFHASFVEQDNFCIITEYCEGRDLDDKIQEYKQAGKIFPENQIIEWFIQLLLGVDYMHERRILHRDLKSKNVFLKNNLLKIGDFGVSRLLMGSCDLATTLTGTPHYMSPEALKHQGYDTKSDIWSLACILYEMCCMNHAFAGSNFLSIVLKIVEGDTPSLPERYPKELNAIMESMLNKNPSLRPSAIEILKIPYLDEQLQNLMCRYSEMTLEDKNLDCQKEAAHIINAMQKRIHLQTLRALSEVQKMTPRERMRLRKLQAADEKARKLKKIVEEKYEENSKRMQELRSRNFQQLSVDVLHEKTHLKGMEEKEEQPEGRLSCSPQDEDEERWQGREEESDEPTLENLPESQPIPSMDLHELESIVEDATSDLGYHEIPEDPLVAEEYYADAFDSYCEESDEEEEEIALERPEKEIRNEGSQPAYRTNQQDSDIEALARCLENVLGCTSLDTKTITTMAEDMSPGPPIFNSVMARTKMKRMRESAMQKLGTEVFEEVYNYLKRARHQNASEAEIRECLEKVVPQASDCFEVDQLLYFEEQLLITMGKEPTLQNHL
Description: Inhibition of human NEK11 assessed as enzyme activity at 1 uM using myelin basic protein as substrate preincubated for 20 mins followed by [gamma-33P]-ATP addition and measured after 120 mins by radiometric Hot-SpotSM Kinase assay relative to control.

Experiment [6] concerns the target CDC7/DBF4 (Cell division cycle 7-related protein kinase/Activator of S phase kinase) (Homo sapiens) (UniProt Q9UBU7+O00311). Description: Inhibition of human CDC7/DBF4 assessed as enzyme activity at 1 uM using KTFCGTPEYLAPEVRREPRILSEEEQEMFRDFDYIADWC as substrate preincubated for 20 mins followed by [gamma-33P]-ATP addition and measured after 120 mins by radiometric Hot-SpotSM Kinase assay relative to control. The class given is protein-complex assay.

Experiment [7] concerns the target Dual specificity protein kinase CLK2 (Homo sapiens) (UniProt P49760). Kind of experiment: Inhibition of human CLK2 assessed as enzyme activity at 1 uM using myelin basic protein as substrate preincubated for 20 mins followed by [gamma-33P]-ATP addition and measured after 120 mins by radiometric Hot-SpotSM Kinase assay relative to control.

Chain of CDC7/DBF4 (Cell division cycle 7-related protein kinase/Activator of S phase kinase) (Homo sapiens) (O00311 whole entry, looked up): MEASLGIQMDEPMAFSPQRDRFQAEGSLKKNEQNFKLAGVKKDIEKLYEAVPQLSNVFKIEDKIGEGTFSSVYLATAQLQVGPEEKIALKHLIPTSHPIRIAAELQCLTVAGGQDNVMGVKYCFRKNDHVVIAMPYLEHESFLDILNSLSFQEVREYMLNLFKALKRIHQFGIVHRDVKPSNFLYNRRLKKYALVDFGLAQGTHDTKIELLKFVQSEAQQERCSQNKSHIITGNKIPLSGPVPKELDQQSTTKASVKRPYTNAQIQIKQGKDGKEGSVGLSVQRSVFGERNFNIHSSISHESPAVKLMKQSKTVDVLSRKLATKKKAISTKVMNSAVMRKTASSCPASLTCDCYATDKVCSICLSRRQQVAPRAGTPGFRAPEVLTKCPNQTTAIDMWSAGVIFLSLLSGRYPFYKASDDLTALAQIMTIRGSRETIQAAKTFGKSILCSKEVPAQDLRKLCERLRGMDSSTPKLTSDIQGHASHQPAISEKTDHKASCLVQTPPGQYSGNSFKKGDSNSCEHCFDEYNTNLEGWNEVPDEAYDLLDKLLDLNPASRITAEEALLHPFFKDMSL
Chain of CDC7/DBF4 (Cell division cycle 7-related protein kinase/Activator of S phase kinase) (Homo sapiens) (Q9UBU7 whole entry, looked up): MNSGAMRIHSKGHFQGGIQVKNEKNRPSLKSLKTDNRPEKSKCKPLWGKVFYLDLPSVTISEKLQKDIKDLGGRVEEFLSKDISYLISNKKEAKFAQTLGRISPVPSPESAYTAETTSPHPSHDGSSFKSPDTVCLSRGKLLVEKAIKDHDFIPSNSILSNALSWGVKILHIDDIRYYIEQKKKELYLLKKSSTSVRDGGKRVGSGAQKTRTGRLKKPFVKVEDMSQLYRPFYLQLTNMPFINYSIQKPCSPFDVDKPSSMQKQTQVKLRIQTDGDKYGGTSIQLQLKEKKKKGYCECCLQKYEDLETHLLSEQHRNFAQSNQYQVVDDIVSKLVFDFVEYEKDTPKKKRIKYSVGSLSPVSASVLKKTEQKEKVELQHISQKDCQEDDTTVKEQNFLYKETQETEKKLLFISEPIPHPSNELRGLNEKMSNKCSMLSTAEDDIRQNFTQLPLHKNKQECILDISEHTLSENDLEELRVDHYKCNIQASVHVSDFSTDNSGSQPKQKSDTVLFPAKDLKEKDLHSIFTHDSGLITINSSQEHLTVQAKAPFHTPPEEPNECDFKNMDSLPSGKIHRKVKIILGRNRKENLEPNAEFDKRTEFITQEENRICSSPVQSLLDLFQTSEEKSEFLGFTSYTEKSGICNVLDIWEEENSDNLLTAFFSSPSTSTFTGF
Chain of Dual specificity protein kinase CLK2 (Homo sapiens) (P49760 whole entry, looked up): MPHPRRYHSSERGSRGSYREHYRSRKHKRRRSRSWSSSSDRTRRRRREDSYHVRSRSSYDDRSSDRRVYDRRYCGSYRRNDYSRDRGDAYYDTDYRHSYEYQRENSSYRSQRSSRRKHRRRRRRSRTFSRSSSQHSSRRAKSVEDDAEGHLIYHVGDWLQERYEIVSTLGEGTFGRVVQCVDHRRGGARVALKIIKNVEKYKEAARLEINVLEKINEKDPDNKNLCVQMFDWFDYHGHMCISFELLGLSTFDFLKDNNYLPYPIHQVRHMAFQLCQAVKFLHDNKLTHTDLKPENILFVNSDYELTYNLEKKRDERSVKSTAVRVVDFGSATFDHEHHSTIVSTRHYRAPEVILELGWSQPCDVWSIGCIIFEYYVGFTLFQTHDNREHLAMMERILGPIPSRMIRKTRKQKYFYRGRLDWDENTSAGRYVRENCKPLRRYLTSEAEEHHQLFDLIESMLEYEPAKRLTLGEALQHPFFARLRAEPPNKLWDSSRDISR
Chain of Serine/threonine-protein kinase 38-like (Homo sapiens) (Q9Y2H1 2-464 limits assumed): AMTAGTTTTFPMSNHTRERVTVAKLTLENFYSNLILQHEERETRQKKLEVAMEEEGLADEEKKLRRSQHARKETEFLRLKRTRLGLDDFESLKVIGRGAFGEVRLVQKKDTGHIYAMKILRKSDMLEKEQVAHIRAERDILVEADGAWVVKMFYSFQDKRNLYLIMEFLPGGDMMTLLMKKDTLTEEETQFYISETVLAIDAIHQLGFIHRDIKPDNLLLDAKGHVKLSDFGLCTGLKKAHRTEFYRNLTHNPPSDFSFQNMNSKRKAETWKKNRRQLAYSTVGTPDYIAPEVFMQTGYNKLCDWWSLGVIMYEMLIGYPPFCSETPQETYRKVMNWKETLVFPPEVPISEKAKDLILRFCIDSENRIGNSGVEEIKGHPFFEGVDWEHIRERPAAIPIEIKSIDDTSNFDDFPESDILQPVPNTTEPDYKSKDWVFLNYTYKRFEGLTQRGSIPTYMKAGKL

For the compound `C[C@H](Nc1ncnc2nc[nH]c12)c1cc2cccc(Cl)c2c(=O)n1-c1ccccc1`, the Activity in experiment [1] turned out to be 106%; in experiment [2], 101%; in experiment [3], 100%; in experiment [4], 92.7%; in experiment [5], 90.1%; in experiment [6] it was 93.8%. The Activity in experiment [7] is 95.3%.
In the case of `CC[C@H](Nc1ncnc2[nH]cnc12)c1nc2cccc(F)c2c(=O)n1-c1ccccc1`, the Activity in experiment [1] came out at 98.6%; in experiment [2], 109%; in experiment [3] it was 103%; in experiment [4] it was 95.1%; in experiment [5], 84.5%; in experiment [6] it was 91.6%. In addition, the Activity in experiment [7] stood at 96.9%.
For the compound `CC(C)Oc1ccc(-c2nn([C@@H](C)c3oc4ccc(F)cc4c(=O)c3-c3cccc(F)c3)c3ncnc(N)c23)cc1F` [UMBRALISIB], the Activity in experiment [1] was found to be 106%; in experiment [2], 111%; in experiment [3] it was 102%; in experiment [4], 100%; in experiment [5], 84.8%; in experiment [6], 92%. In addition, the Activity in experiment [7] came out at 99.5%.

Values taken from ChEMBL document CHEMBL5715954, “Silencing c-Myc translation as a therapeutic strategy through targeting PI3Kδ and CK1ε in hematological malignancies” (Blood, 2017).
